From BindingDB's records for doi:10.1021/ml100192b (2011)

Experiments:
[1] = Inhibition of lactase in mouse intestinal input by glucose release assay
[2] = Inhibition of maltase in mouse intestinal input by glucose release assay

Structure (SMILES)	IC50 [1] [µM]	IC50 [2] [µM]
CCCCCCCOCCCCCN1C[C@H](O)[C@@H](O)[C@H](O)[C@H]1CO [N-Heptoxypentyl-1-deoxynojirimycin]	250	7
CCCCCCCOCCCCCN1C[C@H](O)[C@@H](O)[C@H](O)[C@@H]1CO [N-Heptoxypentyl-L-ido-1-deoxynojirimycin]	250	> 1000
